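Where inhibition never reached the appropriate level, the endpoint shown equals the highest concentration tested. Otherwise, values were interpolated linearly from a five-concentration, 48-hour dose response in 96-well plates. Abbreviation: GI50, concentration required for 50% inhibition of growth.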 The source made the active and inactive calls. Cut-off read from the data, not from the text of the source: active = GI50 up to about 1.1 µM and inactive = higher. Where a SMILES comes first, the peptide text is derived from it. Square brackets hold non-standard residues; d marks the D form. Peptide text beside a SMILES is read from it.
How the values were obtained:
Test in all cases: NCI anticancer screen, dose series, 48 h
HL-60 = test system: HL-60
NCI-H226 = test system: NCI-H226
COLO 205 = test system: COLO 205
HOP-62 = test system: HOP-62
SK-MEL-28 = test system: SK-MEL-28
NCI-H460 = test system: NCI-H460
Hs-578T = test system: Hs-578T
HCC 2998 = test system: HCC 2998
SK-MEL-2 = test system: SK-MEL-2
MDA-MB-231 = test system: MDA-MB-231
PC-3 = test system: PC-3
T47D = test system: T47D
DLD-1 = test system: DLD-1
SF-539 = test system: SF-539
KM-20L2 = test system: KM-20L2
M19-MEL = test system: M19-MEL
ACHN = test system: ACHN
A549 = test system: A549
XF498 = test system: XF498
HOP-18 = test system: HOP-18

Measured: GI50

O=Cc1cc([N+](=O)[O-])no1
inactive: HL-60 15.9 µM | NCI-H226 78.9 µM | COLO 205 36 µM | HOP-62 38.1 µM | SK-MEL-28 > 100 µM | NCI-H460 44.9 µM | Hs-578T 46.6 µM | HCC 2998 35.2 µM | SK-MEL-2 24.4 µM | MDA-MB-231 26.5 µM | PC-3 24.7 µM | T47D 50.5 µM

CN(/N=N/c1[nH]cnc1C(N)=O)C1CCCCC1
inactive: DLD-1 > 100 µM | HL-60 29.5 µM | SF-539 > 100 µM | NCI-H226 > 100 µM | KM-20L2 81.3 µM | COLO 205 > 100 µM | HOP-62 > 100 µM | SK-MEL-28 > 100 µM | NCI-H460 > 100 µM | M19-MEL > 100 µM | ACHN > 100 µM | HCC 2998 > 100 µM | A549 > 100 µM | SK-MEL-2 27.1 µM | XF498 75.7 µM

CC(C)C[C@H](NC(=O)[C@H](CC(C)C)NC(=O)[C@@H](Cc1c[nH]c2ccccc12)NC(=O)[C@H](Cc1ccccc1)NC(=O)[C@@H](Cc1c[nH]c2ccccc12)NC(=O)[C@H](CCC(N)=O)NC(=O)[C@@H](CCC(N)=O)NC(=O)[C@@H]1CCCN1C(=O)[C@@H](CCCCN)NC(=O)[C@H]1CCCN1C(=O)[C@H](N)CCCN=C(N)N)C(N)=O (H-[dR][dP][dK]P[dQ]Q[dW]F[dW]LL-NH2)
inactive: DLD-1 > 100 µM | HOP-18 > 100 µM | HL-60 > 100 µM | SF-539 > 61.4 µM | NCI-H226 > 100 µM | KM-20L2 > 100 µM | COLO 205 > 100 µM | HOP-62 > 100 µM | SK-MEL-28 > 100 µM | NCI-H460 64.7 µM | M19-MEL > 100 µM | HCC 2998 > 100 µM | A549 > 100 µM | SK-MEL-2 > 100 µM | XF498 > 100 µM

O=C1CCc2cc3c(cc21)CC1(Cc2cc4c(cc2C1)CCCC4)C3
inactive: HL-60 27.9 µM | SF-539 > 100 µM | COLO 205 33 µM | HOP-62 83.2 µM | SK-MEL-28 > 100 µM | NCI-H460 41.4 µM | Hs-578T 30.5 µM | ACHN > 100 µM | HCC 2998 69.8 µM | A549 88.9 µM | SK-MEL-2 > 100 µM | MDA-MB-231 19.4 µM | PC-3 > 100 µM | T47D 32.1 µM

CCOC(=O)C(Cc1cn(C(C)=O)c2ccccc12)P(=O)(OCC)OCC (stereo not drawn)
inactive: NCI-H226 > 100 µM | COLO 205 > 100 µM | HOP-62 > 100 µM | SK-MEL-28 > 100 µM | NCI-H460 55.1 µM | Hs-578T > 100 µM | ACHN > 100 µM | HCC 2998 > 100 µM | A549 > 100 µM | SK-MEL-2 > 100 µM | MDA-MB-231 > 100 µM | PC-3 60.8 µM | T47D > 100 µM

Clc1ccc(/N=c2\oc3ccccc3cc2-c2nc3ccccc3[nH]2)c(Cl)c1
inactive: HL-60 > 100 µM | HOP-62 24.3 µM | Hs-578T 34.2 µM | ACHN 31 µM | PC-3 > 100 µM | T47D > 100 µM

O=C(O)c1cc2c(ncc3c(=O)n(-c4ccccc4)[nH]c32)s1
inactive: DLD-1 > 100 µM | HOP-18 > 100 µM | SF-539 > 100 µM | NCI-H226 > 100 µM | KM-20L2 > 100 µM | COLO 205 > 100 µM | HOP-62 > 100 µM | SK-MEL-28 > 100 µM | NCI-H460 > 100 µM | M19-MEL > 100 µM | ACHN > 100 µM | HCC 2998 > 100 µM | A549 > 100 µM | SK-MEL-2 > 100 µM | XF498 > 100 µM

O=C(CCN1CCOCC1)C(=Cc1ccccc1)C(=O)CCN1CCOCC1
inactive: DLD-1 1.82 µM | HOP-18 16.8 µM | HL-60 1.53 µM | SF-539 3.44 µM | NCI-H226 14.6 µM | KM-20L2 9.16 µM | COLO 205 2.51 µM | HOP-62 21.2 µM | SK-MEL-28 2.38 µM | NCI-H460 12.8 µM | M19-MEL 2.83 µM | HCC 2998 13.7 µM | A549 18.1 µM | SK-MEL-2 8.34 µM | XF498 4.29 µM

CN(C)c1cccc(OC(=O)NCCCl)c1
inactive: DLD-1 > 100 µM | HOP-18 > 100 µM | HL-60 > 100 µM | SF-539 > 100 µM | NCI-H226 > 100 µM | COLO 205 > 100 µM | HOP-62 > 100 µM | SK-MEL-28 > 100 µM | NCI-H460 > 100 µM | M19-MEL > 100 µM | HCC 2998 > 100 µM | A549 > 100 µM | SK-MEL-2 > 100 µM | XF498 > 100 µM

CC1NC(=O)CNC(=O)CNC(=O)C(Cc2ccc(O)cc2)NC(=O)C(C(C)C)NC(=O)C(C)NC1=O (stereo not drawn) (cyclo(GGAAVY); configuration not given here)
inactive: DLD-1 > 100 µM | HOP-18 30.1 µM | HL-60 > 100 µM | SF-539 > 100 µM | NCI-H226 > 100 µM | COLO 205 > 100 µM | HOP-62 > 100 µM | SK-MEL-28 > 100 µM | NCI-H460 > 100 µM | M19-MEL > 100 µM | HCC 2998 > 100 µM | A549 > 100 µM | SK-MEL-2 > 100 µM | XF498 > 100 µM
